The structures appear in SMILES notation. Where only a bound is given, the exact number is not on record here.

We go through six compounds from PMC11557929, “Environment-sensitive turn-on fluorescent probe enables live cell imaging of myeloperoxidase activity during NETosis” (Communications Chemistry, 2024).

In series [1] the test system is MPO activity in human polymorphonuclear neutrophils (hPMN). Put plainly: Wash-free live-cell imaging of probes in hPMN during NETosis. Type of series: cell-based. The settings on record: 100 nM PMA, probe near IC50, 3 h, 37 °C; for MFI (mean fluorescence intensity): whole images. The procedure: With probes 1-6 in hand, we opted for a cell-based screening strategy to find suitable probes to image MPO activity during NETosis (Fig. 1A). In this approach, we stimulated freshly isolated human polymorphonuclear neutrophils (hPMN) with PMA and incubated with probes 1-6 at concentrations near their IC50 for 3 h. […] Subsequently, probes that show a significant ‘’turn-on” fluorescence compared to unstimulated cells are selected and tested for colocalization with an anti-MPO antibody in fixed cells. With this cell-based strategy, potential suitable probes to image MPO activity during NETosis can be immediately identified. Therefore, live hPMN were incubated with PMA and probes 1-6 and imaged directly (Fig. 1B).
Colocalization analysis was performed with JaCoP[34].

Series [2] has as its target T1, MPO (Homo sapiens, UniProt P05164).
T1 sequence (P05164 49-745): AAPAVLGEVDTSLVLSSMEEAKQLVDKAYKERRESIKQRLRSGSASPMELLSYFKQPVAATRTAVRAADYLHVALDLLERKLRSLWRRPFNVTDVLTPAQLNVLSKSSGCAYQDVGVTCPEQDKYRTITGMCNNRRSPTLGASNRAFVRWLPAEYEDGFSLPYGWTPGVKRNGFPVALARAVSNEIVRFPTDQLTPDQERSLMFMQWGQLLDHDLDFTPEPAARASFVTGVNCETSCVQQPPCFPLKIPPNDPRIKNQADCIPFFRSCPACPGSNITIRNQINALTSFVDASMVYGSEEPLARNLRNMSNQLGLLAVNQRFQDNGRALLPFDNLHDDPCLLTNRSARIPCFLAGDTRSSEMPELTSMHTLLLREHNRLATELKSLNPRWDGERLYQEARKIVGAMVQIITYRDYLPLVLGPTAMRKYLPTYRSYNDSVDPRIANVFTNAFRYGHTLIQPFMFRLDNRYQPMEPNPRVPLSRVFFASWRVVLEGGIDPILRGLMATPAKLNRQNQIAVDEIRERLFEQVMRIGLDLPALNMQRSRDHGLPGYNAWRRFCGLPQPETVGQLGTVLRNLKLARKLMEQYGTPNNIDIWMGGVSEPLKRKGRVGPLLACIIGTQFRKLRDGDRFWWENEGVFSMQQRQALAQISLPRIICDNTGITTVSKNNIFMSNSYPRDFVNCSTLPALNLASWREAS
As to the kind of experiment: Amplex Red assay of MPO peroxidase activity. It is filed as biochemical. The settings on record: for IC50: Amplex Red assay, t = 30 min, 100 pM MPO, 1 µM H2O2. The text has this: Having obtained the fluorescent properties of probes 1-6, we determined their functional properties by the Amplex Red assay as previously reported (Table 1, Supplementary Figs. 1-6)[27]. In this assay, 10-acetyl-3,7-dihydroxyphenoxazine is oxidized by MPO in the presence of H2O2 to resorufin, a highly fluorescent compound with an fluorescence excitation and emission maxima of 571 and 585 nm, respectively. Fortunately, probes 1, 2, 4, 5, and 6 retained similar IC50 values as those previously reported for 2-thioxanthine-based inhibitors despite the presence of the environment-sensitive fluorophores[27],[33]. However, we noticed a slight negative trend in the IC50 of probes containing the shorter ethyl spacer. This effect was more evident in probe 3, which experienced a ~ 4-fold reduction in IC50 values compared to its counterpart probe 4.
MPO peroxidase activity and the determination of inhibitor potencies were performed as described before with minimal changes. In brief, to 78 uL of assay mixture (PBS (pH 7.4), 1 µM H2O2, and 20 µM Amplex Red) were added 2 μL of probe 1-6 in concentrations from 0 to 40 µM in DMSO (final DMSO concentration of 2%) and mixed for 1 min. The reactions were initiated by the addition of 20 μL 500 pM MPO (final MPO concentration of 100 pM) followed by mixing for 5 s. Fluorescent changes (RFU/s) were monitored at room temperature every 20 s for 30 min with excitation and emission filters set at 530 and 580 nm, respectively. Initial rates (V0) were determined using linear regression analysis of the first 600 s corresponding to the linear range of the DMSO control. To calculate IC50 values, V0 and probe concentration were fit to a dose-response curve with a standard Hill slope of -1 using nonlinear regression analysis. The kobs, kinact, and KI values for probe 1 were calculated exactly as described before.

Series [3] can be described thus: Chemical stability in cell culture media (HPLC). Type of series: physicochemical. The settings on record: cell culture media with or without serum, 4 and 24 h, 37 °C. Here is the method:
(§1) Furthermore, we confirmed the chemical stability of probe 1 in cell culture media with or without serum for 4 and 24 h at 37 °C (Supplementary Fig. 7).
(§2) To a stirring solution of the corresponding N-Boc aldehyde B1 or B2 (7.6 mmol) and AcOH (1.2 mmol) in dry CH3OH (30 mL) was added 4-amino-1H-imidazole-5-carboxamide (6.0 mmol). The reaction was stirred for 2.5 h under N2 before NaBH3CN (7.2 mmol) was added in one portion and the mixture was left stirring overnight under N 2. A solution of sat. aq. NaHCO3 was added and most of the CH3OH was removed in vacuo. The residue was extracted with EtOAc and the combined organic layers were dried over MgSO 4, filtered, and the crude product purified by flash silica gel column chromatog raphy (0-10% CH3OH/CH2Cl2) to give C1 or C2. […]
(§3) The solutions were incubated for 5 min and the fluorescence emission spectra was measured between 480 and 600 nm. […]
(§4) Probe 1 was diluted to 400 µM and incubated in CH3CN, RPMI 1640, or RPMI 1640 supplemented with 2% FCS for 0, 4, and 24 h at 37 °C under constant shaking. […] The supernatant was filtered and analyzed by HPLC. […]
(§5) Differentiation was assessed morphologically by fluorescent nuclear staining (Hoechst 33342) and by evaluation of CD11b expre ssion with a rat primary antibody directed against human CD11b (M1/70, Invitrogen, 1:400, 30 min, 4 °C) using a BD FACSVerse Flow Cytometer. Data were analyzed with FlowJo. […]

Series [4] in a line: Fluorescence excitation and emission spectra in solvents of different polarity. It is filed as physicochemical. The settings on record: for fluorescence increase in CH2Cl2 compared to PBS buffer (pH 7.4): approximate values. The procedure: To validate the solvatochromic properties of the probes, we recorded the fluorescence excitation and emission spectra of probes 1-6 in a 10 μM solution in CH2Cl2, CH3CN, CH3OH, and PBS buffer (pH 7.4, Table 1, Supplementary Table 1). These solvents have different polarities thereby emulating the hydrophobic enzyme-probe binding site environment (Supplementary Figs. 1-6). […] This effect was less prominent for 3 and 4 with a ~ 110-fold fluorescence increase, and for 5 and 6 with a ~ 30-fold fluorescence increase.
Probes 1-6 were prepared into 10 mM DMSO stock solutions and diluted to 10 μM with CH2Cl2, CH3CN, CH3OH, or PBS (pH 7.4). The fluorescence excitation spectra of each probe was measured between 300 and 480 nm for probes 1-4 and 300 and 500 nm for probes 5 and 6. The fluorescence emission spectra of each probe was measured between 480 and 700 nm for probes 1-4 and 500 and 700 nm for probes 5 and 6.

For series [5], the target named is T1, MPO. Put plainly: Fluorescence turn-on of probe with purified MPO. Type of series: biochemical. The settings on record: 1 µM probe, 15 µM MPO, 150 µM H2O2, PBS (pH 7.4). The procedure:
as §1, §2, §3, §4, §5

Series [6] has as its system MPO activity in human polymorphonuclear neutrophils (hPMN). As to the kind of experiment: Wash-free live-cell imaging of probes in hPMN during NETosis. The settings on record: 4 µM ionomycin, 1 µM probe, 3 h. Type of series: cell-based.
Where [7] appears, read: from kobs vs probe concentration.

By IC50 is commonly meant the midpoint of a concentration-inhibition curve. A high value points to a need for much substance. A word on the Ki: it is a measure of affinity in units of concentration, obtained from inhibition or displacement. For `CN(C)c1ccc2c3c(cccc13)C(=O)N(CCn1c(=S)[nH]c(=O)c3[nH]cnc31)C2=O` [Probe 1], in series [1], the “S/B (signal-to-background ratio)” value came out at 16.7 and the “MFI (mean fluorescence intensity)” value is 6.9 gray values. Also, in series [2], the kinact/KI worked out at 4263 M^−^1s^−^1 and the IC50 amounted to 854 ± 44 nM. In addition, in series [2] (setting [7]), the Ki is 1080 ± 73 nM and the kinact turned out to be 0.0046 ± 0.0001 s^−^1. Further, the chemical stability entry in series [3] was “chemically stable”. Moreover, in series [4] (10 μM), the “fluorescence increase in CH2Cl2 compared to PBS buffer (pH 7.4)” value (shortened to “fluorescence increase in CH2Cl2”) is on record as ~ 300 fold. In series [4] (CH2Cl2, 10 μM), this compound gave a λem of 510 nm and a λex of 415 nm. Moreover, in series [4] (PBS (pH 7.4), 10 μM), the λem turned out to be 560 nm and the λex was determined as 457 nm. In addition, the “fluorescence increase with MPO compared to probe alone, ABAH pre-treated MPO or BSA” value in series [5] is recorded as ~ 13 fold. In addition, in series [6], the “probe signal in ionomycin-stimulated cells” value is recorded as “not significantly different from unstimulated background levels”.

Regarding `CN(C)c1ccc2c3c(cccc13)C(=O)N(CCOCCn1c(=S)[nH]c(=O)c3[nH]cnc31)C2=O` [Probe 2], in series [1], the “S/B (signal-to-background ratio)” value stood at 11.7 and the “MFI (mean fluorescence intensity)” value came to 3.0 gray values. In series [2], this compound had an IC50 of 479 ± 17 nM. Moreover, in series [4] (10 μM), the “fluorescence increase in CH2Cl2” value is listed as ~ 300 fold. Moreover, in series [4] (CH2Cl2, 10 μM), the λem is 512 nm and the λex was 415 nm. In series [4] (PBS (pH 7.4), 10 μM), this compound showed a λem of 560 nm and a λex of 446 nm.

`CN(C)S(=O)(=O)c1ccc(NCCn2c(=S)[nH]c(=O)c3[nH]cnc32)c2nonc12` [Probe 3]: in series [1], the “S/B (signal-to-background ratio)” value is listed as 8.9 and the “MFI (mean fluorescence intensity)” value came out at 1.5 gray values. This compound gave a half-maximal inhibitory concentration (IC50) in series [2] of 4570 ± 1830 nM. Besides, the “fluorescence increase in CH2Cl2” value in series [4] (10 μM) is listed as ~ 110 fold. Further, in series [4] (CH2Cl2, 10 μM), the λem is 532 nm and the λex is on record as 417 nm. In series [4] (PBS (pH 7.4), 10 μM), this compound came in with a λem of 600 nm and a λex of 435 nm.

Turning to `CN(C)S(=O)(=O)c1ccc(NCCOCCn2c(=S)[nH]c(=O)c3[nH]cnc32)c2nonc12` [Probe 4], in series [1], the “S/B (signal-to-background ratio)” value amounted to 7.3 and the “MFI (mean fluorescence intensity)” value is 1.8 gray values. Half-maximal inhibition in series [2] (IC50) was put at 1090 ± 151 nM. Also, in series [4] (10 μM), the “fluorescence increase in CH2Cl2” value is recorded as ~ 110 fold. In addition, in series [4] (CH2Cl2, 10 μM), the λem amounted to 535 nm and the λex was 420 nm. In series [4] (PBS (pH 7.4), 10 μM), the λem is on record as 600 nm and the λex is listed as 435 nm.

Regarding `O=c1[nH]c(=S)n(CCNc2ccc([N+](=O)[O-])c3nonc23)c2nc[nH]c12` [Probe 5], the “MFI (mean fluorescence intensity)” value in series [1] is under 0.1 gray values. Half-maximal inhibition in series [2] (IC50) required 497 ± 86 nM. Also, the “fluorescence increase in CH2Cl2” value in series [4] (10 μM) is ~ 30 fold. The λem is 522 nm in series [4] (CH2Cl2, 10 μM) and 558 nm in series [4] (PBS (pH 7.4), 10 μM). Besides, the λex in series [4] (CH2Cl2, 10 μM) is 452 nm; in series [4] (PBS (pH 7.4), 10 μM), 473 nm. Further, in series [4] (supplementary figure legends), the “fluorescence increase at λem in CH2Cl2 compared to PBS (pH 7.4)” value stood at 40 x.

On to `O=c1[nH]c(=S)n(CCOCCNc2ccc([N+](=O)[O-])c3nonc23)c2nc[nH]c12` [Probe 6], for which, in series [1], the “MFI (mean fluorescence intensity)” value is reported as under 0.1 gray values. Further, in series [2], the IC50 came out at 388 ± 35 nM. Moreover, the “fluorescence increase in CH2Cl2” value in series [4] (10 μM) is ~ 30 fold. Further, in series [4] (CH2Cl2, 10 μM), the λem is given as 517 nm and the λex came to 452 nm. In series [4] (PBS (pH 7.4), 10 μM), this compound came in with a λem of 558 nm and a λex of 488 nm.
